Assays:
Assay type in all cases: in vivo, mouse
5×FAD mice [1] = test: Microglia depletion with PLX5622 chow, microgliosis and Aβ load in the cortex; conditions: PLX5622 chow for 2.5 months, vs normal chow
Protocol: (§1) As previously published (110), brain sections were blocked for 1 hour at room temperature with 2% donkey serum, 1% bovine serum albumin, 0.1% triton, 0.05% tween in PBS prior to incubation with primary antibodies. The primary antibodies were then diluted in this block overnight at 4° C. Brain sections were stained with anti-Aβ (D54D2, Cell Signaling, 1:300 dilution) to label plaques. To assess neuronal cell death, sections were stained with anti-NeuN (MAβ377, Millipore Sigma, 1:500 dilution) and TUNEL (Millipore Sigma, 11684795910, according to the manufacturer's instructions). In order to analyze microglia, sections were stained with IBA1 (ab5076, Abcam, 1:300 dilution). Microglial proliferation was assessed using Ki67-EF660 (SolA15, Thermo Fisher, 1:100 dilution). Microglial iron accumulation was measured using Ferritin Heavy Chain (PA5-27500, Thermo Fisher, 1:500). Following primary antibody incubation, sections were then washed 3 times for 10 minutes at room temperature in PBS and 0.05% tween-20. After washing, the brain sections were incubated in respective donkey Alexa Fluor 488, 594, 647 anti-rabbit, -goat, -rat, -streptavidin, and-mouse (Thermo Fisher, 1:1000 dilution) for 2 hours at room temperature. Once again, brain sections were washed 3 times for 10 minutes at room temperature. […] Images were analyzed using FIJI software or Imaris software (9.5.1). […]

Card9−/−5×FAD mice [2] = test: Microglia depletion with PLX5622 chow, microgliosis and Aβ load in the cortex (CARD9-deficient); conditions: PLX5622 chow for 2.5 months, vs control chow
Protocol: as §1

Card9−/−5×FAD mice [3] = test: Intrahippocampal injection of pustulan, Aβ load in the hippocampus by immunofluorescence (CARD9-deficient control); conditions: 2-month-old Card9−/−5×FAD mice, 2 μg pustulan intrahippocampal, 7 days post-injection, vs vehicle-treated hemisphere
Protocol: as §1

5×FAD mice [4] = test: Intrahippocampal injection of pustulan, Aβ load in the hippocampus by immunofluorescence; conditions: 2-month-old 5×FAD mice, 2 μg pustulan intrahippocampal, 7 days post-injection, vs vehicle-treated hemisphere
Protocol: As previously published (110), brain sections were blocked for 1 hour at room temperature with 2% donkey serum, 1% bovine serum albumin, 0.1% triton, 0.05% tween in PBS prior to incubation with primary antibodies. The primary antibodies were then diluted in this block overnight at 4° C. Brain sections were stained with anti-Aβ (D54D2, Cell Signaling, 1:300 dilution) to label plaques. To assess neuronal cell death, sections were stained with anti-NeuN (MAβ377, Millipore Sigma, 1:500 dilution) and TUNEL (Millipore Sigma, 11684795910, according to the manufacturer's instructions). In order to analyze microglia, sections were stained with IBA1 (ab5076, Abcam, 1:300 dilution). Microglial proliferation was assessed using Ki67-EF660 (SolA15, Thermo Fisher, 1:100 dilution). Microglial iron accumulation was measured using Ferritin Heavy Chain (PA5-27500, Thermo Fisher, 1:500). Following primary antibody incubation, sections were then washed 3 times for 10 minutes at room temperature in PBS and 0.05% tween-20. After washing, the brain sections were incubated in respective donkey Alexa Fluor 488, 594, 647 anti-rabbit, -goat, -rat, -streptavidin, and-mouse (Thermo Fisher, 1:1000 dilution) for 2 hours at room temperature. Once again, brain sections were washed 3 times for 10 minutes at room temperature. […] Images were analyzed using FIJI software or Imaris software (9.5.1).
5×FAD and Card9^−/−5×FAD mice were anesthetized with a ketamine/xylazine cocktail before receiving a bilateral hippocampal injection of 2 μl of vehicle or 2 μg pustulan into the right and left hemisphere of the hippocampus (at +2 mm lateral, -2 mm posterior, and −2 mm ventral relative to the intersection of the coronal and sagittal suture (bregma) at a rate of 200 nl/min) using a stereotaxic frame (51730U, Stoelting) and nanoliter injector (NL2010MC2T, World Precision Instruments). […] Images were analyzed using FIJI software or Imaris software (9.5.1). […]

Compound | Aβ plaque load in the cortex (5×FAD mice [1]) | Aβ plaque load in the cortex (Card9−/−5×FAD mice [2]) | levels of Aβ in the hippocampus (Card9−/−5×FAD mice [3]) | Aβ coverage in the hippocampus (5×FAD mice [4]) | Aβ plaque volume in the hippocampus (5×FAD mice [4]) | number of Aβ plaques in the hippocampus (5×FAD mice [4])
COc1ncc(F)cc1CNc1ccc(Cc2c[nH]c3ncc(C)cc23)c(F)n1 [PLX5622] | significantly increased | did not significantly impact | – | – | – | –
Pustulan | – | – | comparable levels of Aβ regardless of treatment | significantly reduced | lower plaque volume | fewer plaques
